This note sets out measurements from article PMC10619691, “Effect of cyclic substituents on the anti-cancer activity and DNA interaction of ruthenium(II) bis-phenanthroline dipyridoquinoline” (Frontiers in Molecular Biosciences, 2023).

Data set [1] deals with HeLa cells. In words: cell cycle analysis. It is filed as cell-based, human. On the procedure:
(§1) The cell cycle of cervical HeLa and prostate DU145 cancer cells was studied after treatment with VNK-572 and cisplatin, respectively (Figure 3). VNK-572 and cisplatin both reduced the G2 population after 72 h compared to control (e.g., 16%–11% in Hela (p = 0.06) and from 17% to 2% in the DU145 cell line (p = 0.003) for VNK-572) (Figure 3A). […] The DU145 cells saw a decrease in both phases following 72 h of treatment—from 68% to 40% and from 11% to 5% for the G1 and S phases, respectively (Figure 3A).

In a further data set the test system is DU145 cells. Description: cell cycle analysis. Type of data set: cell-based, human. To be noted: DU145, after 72 h; control 1%. On the procedure: as §1
Data set [2] deals with HeLa cells. In words: Annexin V apoptosis assay. Type of data set: cell-based, human. The procedure:
To further analyze the cytotoxicity mechanisms, annexin V was used to determine whether VNK-572/cisplatin exerts an anti-cancer activity through apoptosis. The Annexin V assay was performed following the established procedure. The steps included treating the cells with the complex for 24, 48, and 72 h in 6-well plates and incubating at 37°C. The cells were then rinsed with PBS, trypsinized, and neutralized using culture media. The cells were then spun in the centrifuge at 2500 RPM for 3 min, and the supernatant was discarded. The cell pellet was then washed first with PBS and then with ×1 binding buffer. The cells were then suspended in approximately 1 mL of binding buffer (1–5 million cells), and approximately 100 ul of this suspension was stained with 5 μL of annexin V-APC dye for 15 min. The cells were then washed with binding buffer and resuspended in 200 μL of binding buffer before being stained with 5 ul of propidium iodide. The cells were then analyzed using a flow cytometer within 4 h.

Another data set relates to various cell lines. In words: epi-fluorescence nuclear staining (nuclear morphology). Type of data set: cell-based. To be noted: 72 h treatment, DAPI staining; cisplatin at 5 μM. On the procedure:
To assess the nuclear morphological changes caused by ruthenium complexes on the cell lines, the cells were stained using 4′,6-diamidino-2-phenylindole DAPI dye and analyzed under an EVOS epi-fluorescence microscope at a magnification of ×60 ([Lewandowska et al., 2013]). The protocol involves treating the cells with the complexes, culturing them in 6-well plates, and incubating them at 37°C for 72 h. The cells were then rinsed with PBS, trypsinized, and neutralized using culture media. The cells were then spun in a centrifuge at 2500 RPM for 3 min, and the supernatant was discarded. The cell pellet was then fixed with 15 μL of Carnoy’s solution, resuspended, and spread on a microscope slide. When the cells were dried, 2–3 drops of DAPI were dropped on the smear in the dark and covered with a slip. The slides were then viewed under the epi-fluorescence microscope, and the nuclei were characterized qualitatively. A total of 30 cells per slide were counted, and the number of cells with various nuclear morphologies was recorded. Cells were then classed as normal, chromatin-condensed, swollen, nuclear-condensed, and nuclear-fragmented cells based on their nuclear morphology.

In a further data set the test system is MDA-MB-231 (TNBC). In words: sulphorhodamine B (SRB) cytotoxicity assay. The settings on record: 72 h incubation, mean ± SEM. It is filed as cell-based, human. The procedure:
(§2) The cytotoxicity profile of the ruthenium complexes […]-572, and POW-12A was assessed in various cancer cell lines, namely, human cervical cancer HeLa, prostate cancer cell line DU145, breast cancer cell line MDAMB231MB231, ovarian cancer cell line A2780, and cisplatin-resistant ovarian cancer cell line A2780-CP70, using the preferred screen of the National Cancer Institute, the sulphorhodamine (SRB) dye assay, and the trypan blue cell viability assay ([Skehan et al., 1990]; [Houghton et al., 2007]; [Strober, 2001]). To determine their selective toxicity profile, these complexes were also tested in a normal prostate cell line (PTN1A). From the similarity in chemical structures of the compounds, we deduced that a structure-activity relationship study will help elucidate key properties involved in the cytotoxic activity of this class of metal complexes. The sulphorhodamine B (SRB) assay was used to evaluate the cytotoxicity of each cancer line after treating them with the metal complexes in line with the previously established protocol ([Skehan et al., 1990]). A cell density of 3 × 10^4 cells/mL was treated with various concentrations (3, 10, 30, 50, and 100 μM) of each ruthenium complex by 1:200 dilutions of stock solutions (in DMSO) in culture media, using DMSO as a control. Then, 100 μL of the cell-drug suspension was added to the respective wells of a 96-well plate and incubated at 37°C for 72 h in a CO2-containing incubator. Following this, the cells were fixed using 25 ul of Carnoy's solution and left in the fridge (4°C) for 1 h. The plates were then rinsed with running water and tapped on paper to remove dead cells. The cells were then stained with 100 μL of sulphorhodamine B dye and left for 30 min, after which the dye was washed off using 1% acetic acid, and the plate was left to dry in the oven (60°C). The stained cells were then treated with 100 μL of Tris base (10 mM, pH 10) to solubilize the dye stain. Finally, the plates were analyzed using an Omega plate reader. Each assay was conducted in triplicate. % Cell response=Average of treated cells / Average of control cells x 100.
A general note: Sulforhodamine B stains cellular protein and so reports cell mass.

Another data set has as its system A2780 ovarian cancer. Description: sulphorhodamine B (SRB) cytotoxicity assay. Type of data set: cell-based, human. The settings on record: SRB assay, 72 h incubation; mean ± SEM. The procedure:
as §2

The subject of another data set is HeLa cervical cancer. Description: sulphorhodamine B (SRB) cytotoxicity assay. To be noted: 72 h incubation, mean ± SEM. Type of data set: cell-based, human. The procedure:
as §2

The next data set deals with DU145 prostate cancer. In words: sulphorhodamine B (SRB) cytotoxicity assay. It is filed as cell-based, human. The settings on record: 72 h incubation, mean ± SEM. The procedure: as §2
For a further data set, the system named is PNT1A normal prostate. In words: sulphorhodamine B (SRB) cytotoxicity assay. The settings on record: SRB assay, 72 h incubation; mean ± SEM. Type of data set: cell-based, human. The procedure: as §2
The subject of data set [3] is A280-CP70 cisplatin-resistant ovarian cancer. Description: sulphorhodamine B (SRB) cytotoxicity assay. To be noted: for IC50: SRB assay, 72 h incubation, mean ± SEM. Type of data set: cell-based, human. On the procedure:
as §2

In data set [4] the test system is HeLa cells. In words: cellular localization by confocal fluorescence microscopy. Type of data set: cell-based, human. To be noted: 50 μM, 2 h incubation, co-localization with DAPI. The procedure:
This was further confirmed by the co-localization of these complexes with a nuclear counterstain (DAPI) (Figure 2).
Fluorescence microscopy was used to study cellular localization. HeLa cells were seeded on autoclaved coverslips in the 6-well plate and incubated at 37°C for 48 h, after which the culture media were replaced with media containing VNK-572 (50 μM) and VNK-754 (50 μM), respectively, and further incubation was performed for 2 h. Following this, the cells were fixed with Carnoy’s solution and washed twice with PBS thereafter. Finally, the HeLa cells were counterstained with DAPI, and the seeded coverslips were inverted and placed on slides for examination. A Leica confocal microscope was used for the observation of the samples using a magnification of ×63.

Data set [5] can be described thus: partition coefficient (log P), shake-flask method. Type of data set: physicochemical. The settings on record: phosphate buffered saline (pH 7.4) / 1-octanol. The source says: The role of lipophilicity in the activity of ruthenium (II) polypyridyl complexes is one that has been extensively reported ([Notaro and Gasser, 2017]). […] Based on this, we carried out a partition coefficient (log P) test using a shake-flask method to determine whether the marginal structural differences between VNK-754, VNK-572, and POW-12A affect their lipophilicity and to examine whether such a difference in lipophilicity confers any advantage to their anti-cancer activity. The log P results, as presented in Table 2, clearly show VNK-572 (0.014) and POW-12A (0.077) to be more lipophilic than VNK-754 (−0.874). […] Thus, along with varied DNA intercalating properties, this explains, in part, why there are appreciable differences in the cytotoxic effects of VNK572 and POW12A compared to VNK-754, even though they are generally similar in structure. For example, VNK-572 with an additional benzene ring can penetrate the bi-lipid-layered cell membrane better and achieve higher cellular and nuclear concentrations than VNK-754, producing a greater anti-tumor effect.
To study the lipophilicity of our complexes, we used the shake-flask method at 25.0 °C ± 0.1°C in line with the previously reported protocol ([Dubey et al., 2017]). Equal volumes of the aqueous phase (phosphate buffered saline, pH 7.4) and the 1-octanol phase were pre-saturated with each other overnight. A known amount of the complexes (respectively) was added to the aqueous phase, ensuring our final concentration was within the range of UV spectroscopic analysis; then, an equal volume of the pre-saturated […] phase was added. Both phases were then mixed in a conical flask and left shaking on a thermostatic shaker at a speed of 100 rpm overnight at room temperature. […] Considering that lipophilic compounds will partition into the octanol phase, the concentration of the complexes left in the aqueous phase was analyzed, respectively, by UV spectroscopy; then, the Log P value was calculated: Logp = Log10 ([solute] un-ionized octanol/[solute] un-ionized water).

Data set [6] has as its system RF I φX174 supercoiled circular DNA. In words: supercoiled DNA unwinding by atomic force microscopy. The settings on record: AFM; P/D = 14 for POW-12A and VNK-572, P/D = 5 for VNK-754. Type of data set: binding. On the procedure:
FIGURE 7 AFM height images RF I φX174 on a magnesium-soaked mica surface over an area of 2 µm. Samples with the ruthenium complex had solution mixing ratios of P/D = 14 for POW-12A and VNK-572; and of P/D = 5 VNK-754.
Samples for atomic force microscopy (AFM) were prepared on mica crystals cut into squares of approximately 1 cm^2. These squares were stuck with double-sided tape to a 15-mm diameter metal disc. Before sample preparation, Cellotape was used to remove the top layer of the mica crystal, giving a freshly cleaved surface layer on which the sample is to be deposited. Mica was soaked in a 0.1 M solution of MgCl2 for 5 min and blown dry, and Mg^2+ was used to help DNA (negatively charged) adhere to the negatively charged surface of the mica. For solutions containing DNA and POW-12A or VNK-572, a P/D value of 14 was used. For the solution containing DNA and VNK-754, a P/D value of 5 was used. Then, 2 μL of the solution was pipetted onto the mica surface and left for 10 min until the solvent had evaporated, leaving the DNA adhered to the surface. To remove excess salt, each sample was washed three times with 10 µL nanopure water, drying with nitrogen after each wash. AFM was conducted using a Bruker Multi-mode 2 atomic force microscope operated with a NanoScope V controller. ScanAsyst-AIR AFM tips were purchased from Bruker. Scans were run in tapping mode using ScanAsyst, measuring height, peak force error, and phase. The spring constant was adjusted to the spring constant of the tip, which is 0.4 N m^−1 for ScanAsyst-AIR tips; feedback parameters were set automatically by ScanAsyst Auto. Scans were run over 2 μm^2 areas with 512 lines. Images were prepared using NanoScope analysis software. Raw data were processed using first-order flattening and third-order plane fitting. If the background required smoothening due to large molecules on the surface, first-order flattening with a threshold of Z < 0.05 nm was used to improve the appearance of the background. […]

A word on the IC50: it is the concentration that gives 50% inhibition. On to `N.N.[Cl][Pt][Cl]` [Cisplatin, cisplatin, reference compound], for which the “changes in G1 / S phases” value with HeLa cells [1] is “increase in S-phase arrest”. Also, the sub-G1 population came out at 25% with HeLa cells [1] (72 h of treatment, control 5% (VNK-572), 6% (cisplatin)) and 62% in the data set with DU145 cells. For the same compound, the “Q2 (propidium iodide and annexin V APC-stained cells), late-stage apoptosis” value with HeLa cells [2] (72 h of treatment, control 2%) worked out at 9%. The “Q4 (annexin V APC), early apoptosis” value in the data set with HeLa cells [2] (72 h of treatment, control 14% (VNK-572), 13% (cisplatin)) was 39%. The “Q1 (necrosis)” value with HeLa cells [2] (after 72 h of treatment) is less than 6%. For the same compound, the nuclear morphology result in the data set with various cell lines was “nuclear swelling”. Moreover, the IC50 was 37 ± 8.08 µM in the data set with MDA-MB-231 (TNBC); 2 µM in the data set with A2780 ovarian cancer; 6 ± 0.58 µM with HeLa cervical cancer; 2.4 ± 0.09 µM in the data set with DU145 prostate cancer; 3.8 ± 0.58 µM in the data set with PNT1A normal prostate; 4 ± 0.58 µM in data set [3]. The “resistance factor (IC50 A2780-CP70/IC50 A2780)” value in [3] (from SRB IC50 values) is “two-fold”.

A word on the LogP: it is a log measure of how a compound divides between an organic and an aqueous phase. As for `F[P-](F)(F)(F)(F)F.F[P-](F)(F)(F)(F)F.[Ru+2].c1cnc2c(c1)c1cccnc1c1ncccc21.c1cnc2c(c1)ccc1cccnc12.c1cnc2c(c1)ccc1cccnc12` [VNK-754, ruthenium (II) bis-phenanthroline dipyridoquinoline], the cellular localization result in the data set with HeLa cells [4] was “penetrate the nucleus”. In data set [5], this compound yielded a log partition coefficient (LogP) of −0.874. Moreover, in [6], the “unwinding of supercoiled circular DNA” value is given as “unwound”. The IC50 in the data set with MDA-MB-231 (TNBC) is greater than 100 µM; in the data set on A2780 ovarian cancer it was 74 ± 14.4 µM; in the data set with HeLa cervical cancer it was greater than 100 µM; with DU145 prostate cancer it was greater than 100 µM; in the data set on PNT1A normal prostate, greater than 100 µM; in data set [3] it was greater than 100 µM.
